Where two headings read alike, the source gives them in different places. Marks after values point to notes of the source that are not given here.
Assays:
[1] = Autoxidation rate in air-saturated phosphate buffer, followed spectrophotometrically; type: physicochemical; settings: air saturated 0.05M phosphate buffer pH 7.0, 1 mM EDTA, 25° C., [Pyrimidine] = 2.4 × 10^−5 M
Procedure: The autoxidation rate was measured in air-saturated buffer phosphate solutions 0.05 M at pH 7 and 25° C. The solutions contained 1 mM EDTA to minimize catalysis of the oxidation by trace metallic cations. The rate of autoxidation was measured spectrophotometrically by following the decrease of the UV absorbance of the pyrimidines at their respective λ max (Table 1).
This is probably the reason why there was no transient appearance of an absorption maximum around 240-255 nm which is assumed to be due to the intermediacy of oxidized pyrimidine B (Scheme 1), and was found in the autoxidation of isouramil, divicine and related systems. The decrease in the absorbance of 8a-c, followed a reasonably pseudo first order reaction in the pyrimidine concentration (the dissolved oxygen concentration was at least 13 times higher). However, it was found (Winterbourn, C. C.; Cowden, W. B.; Sutton, H. Biochem. Pharmacol. 1989, 38, 611-618) that the reaction mechanism is complex and involves radical intermediates and chain reactions and that the dependency on the pyrimidine concentration is far from simple. Therefore, in accordance with the present invention a different approach was adapted that uses the measured initial reaction rates for checking the quantitative dependency of the oxidation rate on the electron releasing power of the substituent in the C2 position. Table 1 also contains the initial rates for the reactions of isouramil and divicine (8d and 8e) calculated from Winterbourn, C. C.; Cowden, W. B.; Sutton, H. Biochem. Pharmacol. 1989, 38, 611-618; (aerated 0.05M phosphate buffer, pH 7, 23° C., 50 nM DTPA and similar to our pyrimidine concentrations) using ΔH of 60.2 kJ/mole (Chevion et al.^5a).

[2] = UV absorption spectrum (spectral properties); type: physicochemical; settings: footnote b: this work
[3] = calculated from literature (aerated 0.05M phosphate buffer, pH 7, 23° C., 50 nM DTPA) using ΔH of 60.2 kJ/mole; cited from earlier work
[4] = footnote d: reference; cited from earlier work
[5] = system: murine erythroleukemic cells; settings: cited from earlier work
[6] = system: tumor necrosis factor (TNF); settings: in-vitro and in-vivo; cited from earlier work

Molecule CSc1nc(N=Nc2ccccc2)c(O)c(=O)[nH]1 [7c, 5-Hydroxy-2-methylsulfanyl-6-phenylazo-3H-pyrimidin-4-one] has a melting point of 213 to 215 °C.

In the case of CSc1nc(N)c(O)c(=O)[nH]1 [SCH3, 6-Amino-5-hydroxy-2-(methylthio)pyrimidin-4-(3H)-one], the “Initial rate (autoxidation)” value [1] is reported as 0.0097^c μM/sec, the “ε at λmax” value [2] is reported as 10800 and the λmax [2] is reported as 286 nm.

Cc1nc(N=Nc2ccccc2)c(O)c(=O)[nH]1 [7a, 5-Hydroxy-2-methyl-6-phenylazo-3H-pyrimidin-4-one] showed a melting point of 243 to 245 °C.

For Cc1ncc(O)c(=O)[nH]1 [6a, 5-Hydroxy-2-methylpyrimidin-4(3H)-one], the melting point was > 300 °C.

Cc1ncc(OC2CCCCO2)c(=O)[nH]1 (centres unmarked) [5a, 2-Methyl-5-(tetrahydro-2H-pyran-2-yloxy)pyrimidin-4(3H)-one] showed a melting point of 149 to 151 °C.

For Nc1nc(N)c(O)c(O)n1 [NH2, 2,6-diamino-5-hydroxypyrimidin-4-one], the “Initial rate (autoxidation)” value [3] is listed as 0.061^e μM/sec, the “ε at λmax” value [4] is listed as 9800 and the λmax [4] is listed as 285 nm. The “cytotoxicity in combination with carboplatin” value [5] was “synergistic cytotoxicity” and the “effect on lipopolysaccharide-induced release of TNF” value [6] was “enhances”.

Molecule O=c1[nH]cnc(N=Nc2ccccc2)c1O [7b, 5-Hydroxy-6-phenylazo-3H-pyrimidine-4-one] has a melting point of 244 to 245 °C.

With O=c1[nH]c(S)ncc1OC1CCCCO1 (centres unmarked) [5c, 2-Mercapto-5-(tetrahydro-pyran-2-yloxy)-3H-pyrimidin-4-one] the melting point was > 300 °C.

With Cc1nc(N)c(O)c(=O)[nH]1 [CH3, 6-Amino-5-hydroxy-2-methylpyrimidin-4(3H)-one] the melting point was > 300 °C, the “Initial rate (autoxidation)” value [1] was 0.0015^c μM/sec and the “ε at λmax” value [2] was 16200. For the same molecule, the λmax [2] was 275 nm.

For O=c1[nH]c(S)ncc1O [6c, 5-Hydroxy-2-mercapto-3H-pyrimidin-4-one], the melting point was > 300 °C.

With Nc1nc[nH]c(=O)c1O [H, 6-Amino-5-hydroxypyrimidin-4(3H)-one] the melting point was > 300 °C, the “Initial rate (autoxidation)” value [1] was 0.00087^c μM/sec and the “ε at λmax” value [2] was 13000. It also gave a λmax [2] of 274 nm.

For Nc1nc(O)[nH]c(=O)c1O [OH, 6-amino-2,5-dihydroxypyrimidin-4-one], the “Initial rate (autoxidation)” value [3] is listed as 0.067^e μM/sec, the “ε at λmax” value [4] is listed as 14100 and the λmax [4] is listed as 280 nm.
